From ChEMBL document CHEMBL1153329, “Bioactive metabolites produced by Chaetomium globosum, an endophytic fungus isolated from Ginkgo biloba” (Bioorg Med Chem Lett, 2009)

Columns and labels:
[1] = Toxicity against Artemia salina assessed as mortality rate at 10 ug/mL after 24 hrs by small modified microtiter-plate method; type: organism-based; conditions: in vivo, read-out: Activity
[2] = test system: Rhizomucor miehei; experiment: Antimicrobial activity against Mucor miehei at 10 ug/disk by agar diffusion method; type: functional; conditions: read-out: IZ

| Compound | mortality at 24 h, 10 ug/mL [1] [%] | zone of inhibition at 10 µg/disc [2] [mm] |
| --- | --- | --- |
| C/C1=C\[C@@H](C)C/C=C/[C@H]2[C@@H]3O[C@]3(C)[C@@H](C)[C@H]3[C@H](Cc4c[nH]c5ccccc45)NC(=O)[C@]32C(=O)/C=C/C(=O)[C@@H]1O [CHAETOGLOBOSIN A] | 83.4 | 25 |
| CC[C@H](C)/C=C/C1=CC2=C(Cl)C(=O)[C@@]3(C)O[C@]4(O)[C@H](C)[C@@H](C)OC(=O)[C@@H]4[C@H]3C2=CO1 [CHAETOMUGILIN D] | 75.2 | – |
| C[C@H](/C=C/C1=CC2=C(Cl)C(=O)[C@@]3(C)O[C@]4(O)[C@H](C)[C@@H](C)OC(=O)[C@@H]4[C@H]3C2=CO1)[C@@H](C)O [CHAETOMUGILIN A] | 78.3 | – |
| C/C1=C\[C@@H](C)C/C=C/[C@H]2[C@@H]3O[C@]3(C)[C@@H](C)[C@H]3[C@H](Cc4c[nH]c5ccccc45)NC(=O)[C@]32C(=O)CCC(=O)C1=O [CHAETOGLOBOSIN C] | 75.3 | 15 |
